One assay addresses T1, CYP2A6 (Homo sapiens, UniProt P11509).
T1 sequence (P11509 1-494): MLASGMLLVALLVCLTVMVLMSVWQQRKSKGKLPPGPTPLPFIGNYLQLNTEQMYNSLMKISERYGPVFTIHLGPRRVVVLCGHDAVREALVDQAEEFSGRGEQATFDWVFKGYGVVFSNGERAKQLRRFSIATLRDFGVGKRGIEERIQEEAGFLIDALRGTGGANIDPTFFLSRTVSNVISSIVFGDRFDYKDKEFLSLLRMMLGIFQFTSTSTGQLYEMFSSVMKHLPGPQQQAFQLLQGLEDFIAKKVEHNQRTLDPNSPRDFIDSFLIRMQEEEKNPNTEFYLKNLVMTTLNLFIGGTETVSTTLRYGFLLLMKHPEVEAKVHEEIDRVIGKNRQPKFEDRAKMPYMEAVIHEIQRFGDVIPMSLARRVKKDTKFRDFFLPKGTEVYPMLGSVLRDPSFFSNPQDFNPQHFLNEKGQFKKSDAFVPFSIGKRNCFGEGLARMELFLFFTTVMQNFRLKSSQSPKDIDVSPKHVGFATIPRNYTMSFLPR
The following applies: microsomes. The protocol:
The inhibitory potential (IC50 values) of honokiol on CYP activities was evaluated in pooled human liver microsomes using liquid chromatography-tandem mass spectrometry (LC-MS/MS). […] Honokiol was dissolved in acetonitrile. […] After a 3 min preincubation at 37 °C, the reactions were initiated by addition of an NADP generating system and incubated for 15 min at 37 °C in a shaking water bath. The reaction was then stopped by placement of the tubes on ice and adding 100 μL of ice-cold methanol containing internal standards (^13C2, ^15N-acetaminophen for acetaminophen and N-deethylamodiaquine, and d9-1-hydroxybufuralol for 4-hydroxydiclofenac, 4-hydroxybupropion, 7-hydroxycoumarin, 4-hydroxymephenytoin, 1'-hydroxybufuralol, and 1'-hydroxymidazolam). The incubation mixtures were then centrifuged at 13,000 × g for 4 min. All incubations were performed in triplicate, and average values were used. […]
The metabolites formed from the seven CYP cocktail substrates were simultaneously determined according to our previously described LC-MS/MS method with minor modification; the concentration of 4-hydroxybupropion for CYP2B6 activity was quantified separately by LC-MS/MS. […] Quantification was performed by selected reaction monitoring (SRM) of [M+H]^+ ions and the related product ions for each metabolite. […]

The target of another assay is T2, UGT1A4 (Homo sapiens, UniProt P22310).
T2 sequence (P22310 29-534): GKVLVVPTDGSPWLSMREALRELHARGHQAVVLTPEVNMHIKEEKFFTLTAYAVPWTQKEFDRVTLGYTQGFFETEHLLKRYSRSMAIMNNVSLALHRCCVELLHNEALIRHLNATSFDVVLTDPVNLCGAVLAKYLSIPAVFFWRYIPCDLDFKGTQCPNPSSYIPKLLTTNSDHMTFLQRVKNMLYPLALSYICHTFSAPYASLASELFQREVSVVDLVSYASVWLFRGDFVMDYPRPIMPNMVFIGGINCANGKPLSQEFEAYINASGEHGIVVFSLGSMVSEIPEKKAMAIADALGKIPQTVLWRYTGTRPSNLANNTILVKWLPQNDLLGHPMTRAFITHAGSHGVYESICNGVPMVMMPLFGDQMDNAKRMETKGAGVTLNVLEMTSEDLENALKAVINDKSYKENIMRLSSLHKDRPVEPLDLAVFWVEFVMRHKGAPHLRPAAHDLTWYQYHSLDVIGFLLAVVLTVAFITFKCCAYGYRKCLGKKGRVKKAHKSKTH
Description: UGT1A4-catalyzed trifluoperazine N-glucuronidation inhibition in pooled human liver microsomes. Format: in vitro ADME. Conditions: 5 μM trifluoperazine, pooled HLM (H161). Here is the method: (§1) The inhibitory potency (IC50 value) of honokiol on UGT1A1-catalyzed 17β-estradiol 3-glucuronidation, UGT1A4-catalyzed trifluoperazine glucuronidation, UGT1A9-catalyzed propofol glucuronidation, and UGT2B7-catalyzed azidothymidine glucuronidation activities was determined in pooled human liver microsomes by LC-MS/MS [48]. […] Reactions were initiated by the addition of UDPGA (final concentration, 5 mM), and incubations were carried out at 37 °C in a shaking water bath for 30 min. Reactions were terminated by adding 100 μL of ice-cold methanol containing an internal standard (500 ng/mL ezetimibe for 17β-estradiol 3-glucuronide and propofol glucuronide; 30 ng/mL meloxicam for trifluoperazine glucuronide and azidothymidine glucuronide). The incubation mixtures were then centrifuged at 13,000 × g for 4 min, followed by dilution of 30 μL of the supernatant with 70 μL of water. An aliquot (5 μL) was injected onto the LC-MS/MS. All incubations were performed in triplicate and the mean values were used. Glucuronides produced from UGT isoform-specific substrates were determined by LC-MS/MS [49].
(§2) The apparent kinetic parameters for inhibitory potential (Ki values) were estimated from the fitted curves using Enzyme Kinetics Ver. 1.1 software (Systat Software Inc.).

Another assay deals with T3, UGT2B7 (Homo sapiens, UniProt P16662).
T3 sequence (P16662 24-529): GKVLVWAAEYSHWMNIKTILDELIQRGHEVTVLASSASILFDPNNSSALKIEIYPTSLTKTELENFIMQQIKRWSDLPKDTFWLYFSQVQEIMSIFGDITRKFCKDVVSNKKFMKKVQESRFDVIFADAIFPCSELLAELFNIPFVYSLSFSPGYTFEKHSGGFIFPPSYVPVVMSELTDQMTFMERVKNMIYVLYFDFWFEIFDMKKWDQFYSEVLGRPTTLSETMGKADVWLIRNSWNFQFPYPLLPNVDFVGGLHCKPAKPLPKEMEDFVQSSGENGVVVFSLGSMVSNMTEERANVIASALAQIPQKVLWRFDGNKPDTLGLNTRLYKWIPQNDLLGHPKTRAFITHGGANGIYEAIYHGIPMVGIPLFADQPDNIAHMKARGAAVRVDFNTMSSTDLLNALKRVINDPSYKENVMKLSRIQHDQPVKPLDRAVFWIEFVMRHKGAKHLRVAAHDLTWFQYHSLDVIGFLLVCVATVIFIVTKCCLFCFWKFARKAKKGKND
Nature of the assay: UGT2B7-catalyzed azidothymidine glucuronidation inhibition in pooled human liver microsomes. Conditions: 100 μM azidothymidine, pooled HLM (H161). Format: in vitro ADME. The protocol:
as §1, §2
On the technique in general: Microsomes from liver hold many membrane-bound enzymes, among them those of drug oxidation.

Molecules are shown by their SMILES.

Take `C=CCc1ccc(O)c(-c2ccc(O)c(CC=C)c2)c1` [honokiol, 2-(4-hydroxy-3-prop-2-enyl-phenyl)-4-prop-2-enyl-phenol]: the “IC50 (μM) of honokiol, no preincubation” value on CYP2A6 is “No inhibition”. Moreover, the “IC50 (μM) of honokiol, with preincubation” value against CYP2A6 is given as “No inhibition”. Moreover, the IC50 on UGT1A4 came out at 158 µM; on UGT2B7, 36.4 µM.

Broadly, the IC50 is the concentration at which inhibition is half-maximal. Read a high IC50 as weaker potency in that assay.

Source of the values: paper PMC6269737, “Effect of Honokiol on Cytochrome P450 and UDP-Glucuronosyltransferase Enzyme Activities in Human Liver Microsomes” (Molecules, 2013).
